From US12708627B2, “Combination therapy for VAV3 cancer” (Children's Hospital Medical Center, priority 2021, dated 2026)
Entries after “also recorded” stand apart in the source; their conditions may differ.

How the values were obtained:
VAV3 [1] = target: T1, VAV3 (Homo sapiens, UniProt Q9UKW4); assay: Phosphorylated VAV3 (pY173) immunoblot in MDA-MB-231 cells; assay type: cell-based; set-up: these cells express high endogenous levels of VAV3; endogenous in cells; host or cells: MDA-MB-231; conditions: 3 μM, 15 min
T1 sequence (Q9UKW4 1-847): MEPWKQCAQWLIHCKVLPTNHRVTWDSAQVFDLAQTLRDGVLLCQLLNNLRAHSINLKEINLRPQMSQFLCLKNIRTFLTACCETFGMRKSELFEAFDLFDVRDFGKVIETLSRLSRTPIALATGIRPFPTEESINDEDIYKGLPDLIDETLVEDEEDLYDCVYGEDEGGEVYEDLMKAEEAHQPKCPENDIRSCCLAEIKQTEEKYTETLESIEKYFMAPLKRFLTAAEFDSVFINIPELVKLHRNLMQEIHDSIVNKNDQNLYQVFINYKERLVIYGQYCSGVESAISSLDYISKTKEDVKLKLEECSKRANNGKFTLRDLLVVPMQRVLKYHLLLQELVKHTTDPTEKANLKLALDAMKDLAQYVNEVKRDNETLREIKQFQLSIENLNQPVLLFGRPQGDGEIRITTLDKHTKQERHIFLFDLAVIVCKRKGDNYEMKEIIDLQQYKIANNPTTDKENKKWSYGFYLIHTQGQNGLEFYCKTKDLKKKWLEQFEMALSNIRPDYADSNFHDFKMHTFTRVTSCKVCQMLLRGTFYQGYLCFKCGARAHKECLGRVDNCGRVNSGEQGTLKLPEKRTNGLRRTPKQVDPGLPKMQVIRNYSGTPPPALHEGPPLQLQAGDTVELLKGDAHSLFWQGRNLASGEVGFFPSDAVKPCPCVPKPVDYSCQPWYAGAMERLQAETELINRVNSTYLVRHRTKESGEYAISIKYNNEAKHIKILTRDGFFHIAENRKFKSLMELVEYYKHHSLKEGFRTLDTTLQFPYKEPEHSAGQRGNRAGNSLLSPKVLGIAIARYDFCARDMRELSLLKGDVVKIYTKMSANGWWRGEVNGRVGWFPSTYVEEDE

[2] = tested on: RAC-dependent and RAC-independent effectors in EGFP+/B220+ LDBM cells; conditions: two-week treated mice
[3] = tested on: p190-BCR-ABL1 leukemic progenitor cells (EGFP+/B220dim); assay: Cell cycle analysis by BrdU incorporation; assay type: cell-based; conditions: 20 h; for percentage of cells in the G2+M phases: SEM, N=3
Method: Results are representative of two independent experiments.
It increased the percentage of cells in the G2+M phases from 7±1% (SEM, N=3) in the presence of vehicle control to 22±6.6, 32±3, and 36±7% (SEM, N=3) at 1, 3, and 10 μM, respectively. At 1 μM, it reduced the S-phase 8-fold (p=0.005) and increased apoptosis by at least 5.3-times.
Cell Cycle Analysis: Cell cycle was analyzed via in vitro BrdU incorporation (BD Pharmingen, Cat #552598). Briefly, leukemic progenitors were incubated with 1 mM BrdU solution for 45 minutes, cells were further fixed and permeabilized. DNAse treatment was done according to the instructions and stained with anti BrdU and apoptosis was analyzed by 7-AAD staining through flow cytometry analysis.

RhoA = assay: Active RhoA pull-down with GST-Rhotekin in p190-BCR-ABL1 Ba/F3 cells; assay type: cell-based; conditions: 3 μM
Source text: (§1) GAPDH was used as loading control.

RhoGDI1 = target: T2, RhoGDI1 (Homo sapiens, UniProt P52565); assay: Liposome sedimentation assay, displacement of prenylated RAC1-GDP by GST-RhoGDI1; assay type: biochemical; conditions: IODVA1 2 μM
T2 construct: made in house; host or cells: RAC1: TNAO38 insect cells
T2 sequence (P52565 whole entry, species assumed): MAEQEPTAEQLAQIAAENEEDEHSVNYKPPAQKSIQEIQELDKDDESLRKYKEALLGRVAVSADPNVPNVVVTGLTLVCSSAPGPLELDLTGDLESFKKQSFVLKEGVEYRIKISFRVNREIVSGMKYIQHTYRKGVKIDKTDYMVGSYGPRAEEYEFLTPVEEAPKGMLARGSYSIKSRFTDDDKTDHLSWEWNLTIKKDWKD
Method: as §1
Samples were centrifuged at 20,000×g for 20 min at 4° C. and pellet (p) and supernatant(s) fractions were collected and immunoblotted for RAC1. […] Applicant then measured the interaction between fluorescently labeled RAC1 and RhoGDI1 using stopped-flow fast kinetics techniques.
Prenylated RAC1-GDP (1 μM) was added to liposomes suspended in protein buffer (20 mM Hepes, pH 7.4, 150 mM NaCl, 5 mM MgCl2, 3 mM DTT) and incubated for 20 min on ice. […] The samples were then centrifuged at 20,000×g for 20 min at 4° C. Pellet and supernatant fractions were collected, separated on SDS-PAGE and immunoblotted for RAC1.

[4] = tested on: VAV3−/− p190-BCR-ABL1 leukemic cells expressing N369A VAV3; assay: VAV3 rescue: cell cycle and colony formation, N369A GEF-deficient mutant; assay type: cell-based, murine; conditions: up to 10 μM
Source text: (FIG. 5A) Schematic of domain architecture of full-length, ΔCH and GEF-mutant VAV3; calponin-homology (CH), acidic region (Ac), Dbl-homology (DH), pleckstrin-homology (PH), zinc finger (ZF), SRC-homology 2 and 3 (SH2/SH3). Black circle and star indicate Y173 and N369, respectively.
Re-introducing full-length or ΔCH VAV3 results in similar number of colonies as with wild-type BM leukemic cells (black bars, mean of 200.3 and 183.3 vs 188.3, respectively), a 3-fold increase from VAV3^−/− leukemic cells expressing the empty vector (mean=64.3 colonies).
For VAV3 rescue experiments, low density bone marrow cells from wild-type (VAV3^+/+) or VAV3^−/− mice were transduced with bicistronic retroviral vector encoding p190 BCR-ABL1-IRES-YFP and sorted for YFP^+ 48 h post-transduction. Cells were then transduced with lentiviral particles encoding either empty vector, full-length WT or mutant VAV3 (pCDH1-MCS1-EF1-copGFP). […] Cell cycle was analyzed at 18 h post BrdU incorporation.

VAV3 [5] = target: VAV3 (Mus musculus, UniProt Q9R0C8); assay: GST-RAC pull-down and pVAV3/VAV3 immunoblot in Ba/F3 cells; assay type: cell-based; conditions: 3 μM, 30 min
Sequence of VAV3 (Mus musculus, UniProt Q9R0C8) (Q9R0C8 whole entry): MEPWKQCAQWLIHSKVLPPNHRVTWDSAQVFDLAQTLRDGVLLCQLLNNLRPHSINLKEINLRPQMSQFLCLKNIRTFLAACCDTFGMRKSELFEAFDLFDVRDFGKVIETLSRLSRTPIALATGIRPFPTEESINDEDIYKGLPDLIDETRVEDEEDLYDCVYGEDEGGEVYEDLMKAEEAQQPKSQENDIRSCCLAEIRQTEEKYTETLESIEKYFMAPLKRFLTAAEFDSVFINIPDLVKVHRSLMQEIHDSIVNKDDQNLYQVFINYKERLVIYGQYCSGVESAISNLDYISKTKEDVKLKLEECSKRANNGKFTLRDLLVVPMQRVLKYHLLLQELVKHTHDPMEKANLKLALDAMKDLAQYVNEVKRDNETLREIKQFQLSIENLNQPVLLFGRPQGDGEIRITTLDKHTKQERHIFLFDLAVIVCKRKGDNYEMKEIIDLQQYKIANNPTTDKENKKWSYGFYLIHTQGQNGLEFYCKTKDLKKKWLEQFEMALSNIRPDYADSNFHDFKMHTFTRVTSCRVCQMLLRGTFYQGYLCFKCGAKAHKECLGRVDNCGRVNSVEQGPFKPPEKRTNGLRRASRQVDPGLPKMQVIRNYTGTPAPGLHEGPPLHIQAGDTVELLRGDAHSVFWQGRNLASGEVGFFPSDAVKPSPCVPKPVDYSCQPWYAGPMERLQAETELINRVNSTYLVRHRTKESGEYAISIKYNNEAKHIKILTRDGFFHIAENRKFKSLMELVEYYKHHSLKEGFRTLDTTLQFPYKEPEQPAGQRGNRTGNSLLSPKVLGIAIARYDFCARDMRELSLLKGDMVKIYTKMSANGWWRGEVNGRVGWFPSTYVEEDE
Method: Quantification against total VAV3 is shown. […] Experiments were performed in triplicates.
RAC activity and signaling is regulated by GAPs, GDIs, and RacGEFs. […] The pull-down protein complex was separated on SDS-PAGE and immunoblotted for pVAV3 and VAV3 and quantified (FIG. 4A). […] Consistent with previous studies^23, expressing p190-BCR-ABL1 increased levels of pVAV3 by 3.2-fold in vehicle treated cells (FIG. 4A, input lane 3). […] This decrease is accompanied by a reduced binding of pVAV3/VAV3 to RAC (FIG. 4A, pull-down lane 4).

Structure (SMILES): OC1(c2ccccc2)NC(=Nc2nc3ccccc3[nH]2)N=C1c1ccccn1 (centres unmarked) [IODVA1]
- phosphorylated VAV3 (pY173) signal (VAV3 [1]): significant decrease
- phosphorylation levels of RAC-independent effectors ERK, p38, STAT3, STAT5, AKT [2]: not affected
- decrease in pS6 ([2]; p=0.002): 17.8%
- decrease in pJNK ([2]; p=0.003): 55%
- decrease in pPAK1/3 ([2]; p=0.008): 56%
- decrease in p4EBP ([2]; p=0.026): 20.3%
- increase of apoptosis ([3]; 1 μM): at least 5.3 times
- percentage of cells in the G2+M phases ([3]; 1 μM, vehicle 7±1%): 22±6.6%
- reduction of the S-phase ([3]; 1 μM, p=0.005): 8 fold
- percentage of cells in the G2+M phases ([3]; 3 μM): 32±3%
- percentage of cells in the G2+M phases ([3]; 10 μM): 36±7%
- G0+G1 phase ([3]; 1-10 μM): did not affect
- effect on RhoA activation (RhoA): not at all; also recorded: no effect
- prenylated-RAC1 displacement by RhoGDI1 from liposomes (RhoGDI1): did not affect
- sensitivity to IODVA1, cell cycle and colony formation [4]: did not re-sensitize; also recorded: insensitive
- levels of VAV3 or pVAV3 bound to RAC (VAV3 [5]; empty vector expressing Ba/F3 cells): no significant change
- decrease of levels of overall pVAV3 (VAV3 [5]; p190-BCR-ABL1 Ba/F3 cells): 4 fold
